Measurements as given in patent US6472165B1, “Modulatory binding site in potassium channels for screening and finding new active ingredients” (Arzneimittelwerk Dresden GmbH, priority 1999, dated 2002).

Legend:
Kv4.3 = molecular target: T1, Kv4.3 (Homo sapiens, UniProt Q9UK17); conditions: literature, Wang et al.; cited from earlier work
T1 sequence (Q9UK17 1-655): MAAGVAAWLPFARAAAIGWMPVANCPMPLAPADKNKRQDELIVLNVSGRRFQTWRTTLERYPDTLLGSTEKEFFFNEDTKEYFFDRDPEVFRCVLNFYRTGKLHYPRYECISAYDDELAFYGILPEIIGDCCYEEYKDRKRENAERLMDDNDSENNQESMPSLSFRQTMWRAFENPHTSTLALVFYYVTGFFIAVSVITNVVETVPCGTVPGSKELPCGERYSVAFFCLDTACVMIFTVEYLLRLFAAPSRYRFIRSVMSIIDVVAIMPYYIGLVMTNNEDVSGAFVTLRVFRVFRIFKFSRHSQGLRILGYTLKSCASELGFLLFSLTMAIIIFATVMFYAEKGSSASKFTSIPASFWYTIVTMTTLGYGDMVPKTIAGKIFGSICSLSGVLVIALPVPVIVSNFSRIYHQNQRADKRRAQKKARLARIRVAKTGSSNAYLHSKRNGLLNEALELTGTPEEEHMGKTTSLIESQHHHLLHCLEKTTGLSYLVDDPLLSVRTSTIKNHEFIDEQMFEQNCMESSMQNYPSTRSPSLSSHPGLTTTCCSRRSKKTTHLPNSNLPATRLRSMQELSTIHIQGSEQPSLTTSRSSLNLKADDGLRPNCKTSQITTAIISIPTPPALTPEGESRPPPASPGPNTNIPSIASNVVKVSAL

KCNQ1 channel = KCNQ1 channel (Homo sapiens, UniProt P51787); conditions: literature, Wang et al.; cited from earlier work
M channel (=KCNQ2+KCNQ3) = M channel (=KCNQ2+KCNQ3) (Homo sapiens, UniProt O43525+O43526); conditions: literature, Wang et al.; cited from earlier work
Kv1.2 = Kv1.2 (Homo sapiens, UniProt P16389); conditions: literature, Wang et al.; cited from earlier work
eag1 = molecular target: T2, eag1 (Homo sapiens, UniProt O95259); conditions: literature, Wang et al.; cited from earlier work
T2 sequence (O95259 1-989): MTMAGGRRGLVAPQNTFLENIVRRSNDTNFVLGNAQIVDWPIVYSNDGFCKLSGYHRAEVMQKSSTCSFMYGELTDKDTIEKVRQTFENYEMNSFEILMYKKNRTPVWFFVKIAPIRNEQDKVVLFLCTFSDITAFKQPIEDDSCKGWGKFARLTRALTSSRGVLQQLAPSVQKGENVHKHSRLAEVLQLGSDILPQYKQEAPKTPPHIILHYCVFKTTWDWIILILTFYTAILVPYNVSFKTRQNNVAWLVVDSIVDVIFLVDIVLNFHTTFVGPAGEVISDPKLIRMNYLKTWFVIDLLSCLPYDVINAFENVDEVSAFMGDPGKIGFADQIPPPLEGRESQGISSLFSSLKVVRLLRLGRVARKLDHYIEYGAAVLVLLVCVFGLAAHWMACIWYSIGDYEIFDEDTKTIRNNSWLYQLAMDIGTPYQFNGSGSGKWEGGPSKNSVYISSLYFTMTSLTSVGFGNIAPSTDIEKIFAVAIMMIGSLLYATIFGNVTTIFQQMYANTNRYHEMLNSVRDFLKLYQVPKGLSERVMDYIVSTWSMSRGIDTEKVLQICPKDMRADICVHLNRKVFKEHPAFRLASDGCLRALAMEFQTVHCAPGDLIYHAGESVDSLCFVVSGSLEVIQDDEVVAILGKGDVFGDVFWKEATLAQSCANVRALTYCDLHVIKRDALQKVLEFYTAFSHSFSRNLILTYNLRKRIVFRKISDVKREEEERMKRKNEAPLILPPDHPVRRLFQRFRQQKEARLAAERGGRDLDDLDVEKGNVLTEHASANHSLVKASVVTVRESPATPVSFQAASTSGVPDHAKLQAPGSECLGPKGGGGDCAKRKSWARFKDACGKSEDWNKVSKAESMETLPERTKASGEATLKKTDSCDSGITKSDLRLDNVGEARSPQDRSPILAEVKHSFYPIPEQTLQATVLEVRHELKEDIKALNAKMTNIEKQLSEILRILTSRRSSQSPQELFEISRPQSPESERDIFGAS

elk1 = conditions: literature, Wang et al.; cited from earlier work
erg1 = erg1 (Homo sapiens, UniProt Q12809); conditions: literature, Wang et al.; cited from earlier work
erg3 = molecular target: T3, erg3 (Homo sapiens, UniProt Q9NS40); conditions: literature, Wang et al.; cited from earlier work
T3 sequence (Q9NS40 1-1196): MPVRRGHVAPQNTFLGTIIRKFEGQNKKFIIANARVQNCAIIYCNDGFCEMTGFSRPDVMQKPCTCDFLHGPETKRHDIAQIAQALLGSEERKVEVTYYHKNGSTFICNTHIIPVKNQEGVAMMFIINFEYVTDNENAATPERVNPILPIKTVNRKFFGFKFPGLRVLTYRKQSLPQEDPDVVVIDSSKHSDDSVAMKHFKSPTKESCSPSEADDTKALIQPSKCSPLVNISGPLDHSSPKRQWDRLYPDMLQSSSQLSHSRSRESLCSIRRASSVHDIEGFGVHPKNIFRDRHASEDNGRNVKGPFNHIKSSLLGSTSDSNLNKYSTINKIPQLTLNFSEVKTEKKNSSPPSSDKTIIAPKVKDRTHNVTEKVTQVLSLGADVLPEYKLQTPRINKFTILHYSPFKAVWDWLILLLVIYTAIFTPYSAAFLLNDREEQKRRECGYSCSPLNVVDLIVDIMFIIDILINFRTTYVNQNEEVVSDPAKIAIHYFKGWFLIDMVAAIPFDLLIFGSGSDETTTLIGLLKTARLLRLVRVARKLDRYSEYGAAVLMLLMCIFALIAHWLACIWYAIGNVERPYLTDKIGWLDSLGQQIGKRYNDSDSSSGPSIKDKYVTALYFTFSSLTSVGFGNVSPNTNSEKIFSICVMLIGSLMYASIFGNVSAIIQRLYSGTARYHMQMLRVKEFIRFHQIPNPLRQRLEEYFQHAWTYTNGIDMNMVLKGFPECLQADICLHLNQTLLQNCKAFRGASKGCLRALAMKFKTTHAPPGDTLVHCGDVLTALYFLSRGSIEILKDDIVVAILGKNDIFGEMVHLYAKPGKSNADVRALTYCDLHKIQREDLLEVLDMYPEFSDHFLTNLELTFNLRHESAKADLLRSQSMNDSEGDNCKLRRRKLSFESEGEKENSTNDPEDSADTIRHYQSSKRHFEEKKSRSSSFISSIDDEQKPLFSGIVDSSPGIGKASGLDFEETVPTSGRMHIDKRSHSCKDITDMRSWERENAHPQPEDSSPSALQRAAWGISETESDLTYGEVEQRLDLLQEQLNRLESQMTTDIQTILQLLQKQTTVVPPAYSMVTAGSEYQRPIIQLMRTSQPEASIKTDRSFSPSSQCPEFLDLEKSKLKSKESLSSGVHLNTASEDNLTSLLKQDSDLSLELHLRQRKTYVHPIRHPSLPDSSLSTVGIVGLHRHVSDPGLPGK

r-erg1 = molecular target: T4, r-erg1 (Rattus norvegicus, UniProt O08962); assay: Effect of retigabine on cloned potassium channels, patch clamp; assay type: cell-based; conditions: r-erg1, CHO cells
T4 construct: expressed in transfected cells; host or cells: CHO cells (liposome cDNA transfection)
T4 sequence (O08962 1-1163): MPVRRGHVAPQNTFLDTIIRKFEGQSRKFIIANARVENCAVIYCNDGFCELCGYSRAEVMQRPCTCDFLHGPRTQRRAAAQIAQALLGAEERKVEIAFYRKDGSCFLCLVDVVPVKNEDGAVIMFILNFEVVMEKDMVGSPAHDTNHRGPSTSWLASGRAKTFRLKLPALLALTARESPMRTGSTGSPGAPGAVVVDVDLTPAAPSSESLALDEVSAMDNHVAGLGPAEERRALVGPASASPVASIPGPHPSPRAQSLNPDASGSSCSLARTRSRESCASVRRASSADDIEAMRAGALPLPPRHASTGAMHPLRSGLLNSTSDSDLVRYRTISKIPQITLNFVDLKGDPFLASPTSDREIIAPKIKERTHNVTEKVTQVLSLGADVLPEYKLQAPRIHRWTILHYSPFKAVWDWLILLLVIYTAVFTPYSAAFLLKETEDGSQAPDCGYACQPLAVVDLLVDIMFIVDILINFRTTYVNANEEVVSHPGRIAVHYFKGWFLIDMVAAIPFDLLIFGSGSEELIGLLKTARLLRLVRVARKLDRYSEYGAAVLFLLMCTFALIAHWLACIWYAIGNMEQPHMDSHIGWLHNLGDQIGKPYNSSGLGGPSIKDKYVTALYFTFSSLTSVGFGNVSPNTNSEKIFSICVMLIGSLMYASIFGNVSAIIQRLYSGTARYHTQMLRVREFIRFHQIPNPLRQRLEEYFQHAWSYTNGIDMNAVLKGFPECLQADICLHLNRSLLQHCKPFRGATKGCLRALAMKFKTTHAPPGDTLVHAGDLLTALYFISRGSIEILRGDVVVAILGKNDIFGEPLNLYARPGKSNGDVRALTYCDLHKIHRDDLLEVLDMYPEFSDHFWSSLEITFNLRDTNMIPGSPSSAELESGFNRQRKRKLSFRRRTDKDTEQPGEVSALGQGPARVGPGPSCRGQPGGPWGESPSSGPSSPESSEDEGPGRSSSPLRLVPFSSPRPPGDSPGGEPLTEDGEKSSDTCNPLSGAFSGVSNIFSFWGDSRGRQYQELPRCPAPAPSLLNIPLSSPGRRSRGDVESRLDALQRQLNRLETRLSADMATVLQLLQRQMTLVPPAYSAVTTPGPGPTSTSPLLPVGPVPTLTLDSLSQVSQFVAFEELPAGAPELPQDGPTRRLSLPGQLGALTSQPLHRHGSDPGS
Experimental: For the experiments with xenopus oocytes, the experimental amounts known to be successful for transfections i.e. 500 pg to 37 ng, of hereditary information (cRNA) for the channel to be investigated, which is known from the literature, present as clone and replicated by means of a polymerase chain reaction, was applied by pressure injection into the egg cells. After this treatment, the oocytes were placed in a nutrient medium and kept alive. After one week, the egg cells were brought individually into a recording chamber and, using the two-electrode voltage clamp method, investigated electrophysiologically. For this purpose, the egg cells, starting out from a holding potential of −80 mV, were hyperpolarized and depolarized for, in each case, 2 seconds, in 10 mV steps to different membrane potentials between −130 and +30 mV and the resulting membrane current was measured. These experiments were carried out in the presence of a control solution as well as of 1, 10 and 100 μM of retigabine and the current voltage curves obtained were compared. […] In addition, in accordance with a method already described (Rundfeldt, 1999b), retigabine was added at a concentration of 10 μM to cells, which were slightly depolarized (−60 or −50 mV), and the current induced thereby was quantified. The latter method was employed in order to quantify the currents shown in the Table and induced by retigabine. […]

erg1, sequence (Q12809 whole entry): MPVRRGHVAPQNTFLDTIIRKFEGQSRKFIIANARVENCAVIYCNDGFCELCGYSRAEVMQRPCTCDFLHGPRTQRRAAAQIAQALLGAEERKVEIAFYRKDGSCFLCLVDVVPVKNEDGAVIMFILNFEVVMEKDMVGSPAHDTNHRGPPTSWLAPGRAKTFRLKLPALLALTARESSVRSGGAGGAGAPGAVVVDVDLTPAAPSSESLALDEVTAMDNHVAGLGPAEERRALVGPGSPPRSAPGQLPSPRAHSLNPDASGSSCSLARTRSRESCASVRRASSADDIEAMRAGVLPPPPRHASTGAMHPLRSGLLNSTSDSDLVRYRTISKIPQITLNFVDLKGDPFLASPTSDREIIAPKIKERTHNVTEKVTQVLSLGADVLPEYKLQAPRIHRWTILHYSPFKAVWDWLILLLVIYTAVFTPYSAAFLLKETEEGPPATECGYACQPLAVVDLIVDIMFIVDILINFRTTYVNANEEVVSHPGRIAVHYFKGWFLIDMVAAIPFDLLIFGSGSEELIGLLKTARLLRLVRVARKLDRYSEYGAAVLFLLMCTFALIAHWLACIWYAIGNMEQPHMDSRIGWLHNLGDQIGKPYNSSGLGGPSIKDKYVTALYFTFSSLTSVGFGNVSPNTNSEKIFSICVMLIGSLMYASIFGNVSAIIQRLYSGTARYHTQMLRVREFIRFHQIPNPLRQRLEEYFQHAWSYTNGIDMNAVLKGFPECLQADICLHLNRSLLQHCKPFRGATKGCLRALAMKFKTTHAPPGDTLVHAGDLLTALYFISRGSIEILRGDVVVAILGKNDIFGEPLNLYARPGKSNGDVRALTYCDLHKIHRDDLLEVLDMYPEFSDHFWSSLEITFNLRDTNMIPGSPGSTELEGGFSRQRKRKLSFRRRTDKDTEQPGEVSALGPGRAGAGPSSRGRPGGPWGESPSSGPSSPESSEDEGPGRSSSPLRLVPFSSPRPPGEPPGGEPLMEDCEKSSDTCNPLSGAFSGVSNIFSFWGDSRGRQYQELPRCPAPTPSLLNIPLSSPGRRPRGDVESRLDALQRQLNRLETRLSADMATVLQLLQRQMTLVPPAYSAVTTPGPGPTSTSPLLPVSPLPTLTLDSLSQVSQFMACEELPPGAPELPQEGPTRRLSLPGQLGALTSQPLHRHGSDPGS
Kv1.2, sequence (P16389 whole entry): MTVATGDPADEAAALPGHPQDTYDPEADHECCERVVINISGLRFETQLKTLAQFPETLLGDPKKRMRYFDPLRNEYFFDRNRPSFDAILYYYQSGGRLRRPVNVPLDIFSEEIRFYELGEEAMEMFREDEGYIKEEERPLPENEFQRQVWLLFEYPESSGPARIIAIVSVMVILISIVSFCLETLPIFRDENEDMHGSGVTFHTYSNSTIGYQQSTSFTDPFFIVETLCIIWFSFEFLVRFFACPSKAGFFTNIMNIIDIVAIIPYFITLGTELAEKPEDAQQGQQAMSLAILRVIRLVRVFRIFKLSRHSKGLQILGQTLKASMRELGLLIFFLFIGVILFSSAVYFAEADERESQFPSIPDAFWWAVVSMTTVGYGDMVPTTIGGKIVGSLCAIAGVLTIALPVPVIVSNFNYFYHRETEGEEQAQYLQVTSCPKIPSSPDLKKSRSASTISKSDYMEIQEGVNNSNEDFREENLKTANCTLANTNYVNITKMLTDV

## O=C1c2ccccc2C(Cc2ccncc2)(Cc2ccncc2)c2ccccc21 [XE991]
Kv4.3
  Effect on Kv4.3, with affinity similar to that for the M channel: inhibits
KCNQ1 channel
  Effect on KCNQ1, with affinity similar to that for the M channel: inhibits
M channel (=KCNQ2+KCNQ3)
  Effect on the M channel: block

## O=C1N(c2ccccc2)c2ccccc2C1(Cc1ccncc1)Cc1ccncc1 [linopirdine]
Kv1.2
  Effect on Kv1.2, with affinity similar to that for the M channel: blocked
Kv4.3
  Effect on Kv4.3, with affinity similar to that for the M channel: blocked
KCNQ1 channel
  Effect on KCNQ1, with affinity similar to that for the M channel: blocked
eag1
  Effect on eag1, with affinity similar to that for the M channel: blocked
elk1
  Effect on elk1, with affinity similar to that for the M channel: blocked
erg1
  Effect on erg1, with affinity similar to that for the M channel: blocked
M channel (=KCNQ2+KCNQ3)
  Effect on the M channel: blocks
erg3
  Effect on erg3, with affinity similar to that for the M channel: blocked

## CCOC(=O)Nc1ccc(NCc2ccc(F)cc2)cc1N [retigabine, 2-amino-4-(4-fluorobenzylamino)-1-ethoxycarbonyl-aminobenzene]
r-erg1
  Effect of 10 μM of Retigabine: No effect
